Test results from patent US20220017486A1, “DOCK1-INHIBITING COMPOUND AND USE THEREOF” (KYUSHU UNIVERSITY, NATIONAL UNIVERSITY CORPORATION, priority 2018, published 2022).
pIC50: −log10 of the molar value.

Experiments:
[1] = tested on: mouse lung carcinoma cell line (3LL cells); assay: Cell invasion inhibition assay (Matrigel invasion chamber); type: cell-based; details: 22 hours, DMSO control as 100% invasion
Method: In this Pharmacological Test, the inhibitory effect of each test compound on cell invasion response was evaluated using a mouse lung carcinoma cell line (3LL cells), a mouse pancreatic cancer cell line (PANC02 cells), and a human breast cancer cell line (MDA-MB-157 cells). Of these, the mouse lung carcinoma cell line (3LL) is a cancer cell line with mutant Ras (K-Ras (G12C)), and the human breast cancer cell line (MDA-MB-157) is a cancer cell line with mutant Rac (Rac1 (P29S)). The experiments were performed in BD BioCoat Matrigel invasion chambers (BD Biosciences).
Specifically, an upper chamber with a Matrigel-coated membrane insert (8 μm pores) at the bottom was equilibrated with DMEM (serum-free medium) for 120 minutes. Thereafter, 300 μL of a suspension of a cancer cell line in DMEM (serum-free) was placed in the upper chamber while 500 μL of DMEM (with 10 mass % FCS) was placed in the lower chamber. Each test compound dissolved in DMSO at a predetermined concentration was added to both the culture media in the upper and lower chambers. As a control, DMSO alone was added to both the culture media in the upper and lower chambers. In all of the experiments, the final DMSO concentration in the culture media was adjusted to 0.2 mass %.
The resulting products were cultured under 5% CO2 at 37° C. for 22 hours (3LL and PANC02 cells) or 48 hours (MDA-MB-157 cells). Then, the upper chamber was removed, and the culture medium was removed. Thereafter, non-invading cells remaining in the upper chamber were removed using a cotton swab, and the cells remaining outside the bottom of the upper chamber (cells that had invaded into the Matrigel, and passed through the membrane insert) were stained with Diff-Quick (Sysmex). After staining, the membrane inserts with Matrigel were cut out using a scalpel to prepare slides, and the number of invading cells was counted under an optical microscope.
The results were evaluated based on percent cell invasion (%: Invasion) and percent inhibition (%: Inhibition). The percent cell invasion was obtained by converting the number of invading cells in the presence of each test compound into a percentage, taking the number of invading cells in the control test, in which DMSO was added alone, as 100%; and the percent inhibition was obtained by deducting the percent cell invasion from 100.

[2] = molecular target: T1, DOCK1 (DHR-2 domain) (Homo sapiens, UniProt Q14185); assay: In vitro GEF assay: Rac activation by DOCK1 DHR-2 domain; type: biochemical, mice and humans
T1 construct: polypeptide fragments corresponding to the DHR-2 domain of DOCK1 or DOCK2 from mice and humans; Histidine-SUMO (N); made in house; host or cells: E. coli Arctic express (DE3)
T1 sequence (Q14185 1207-1617 limits assumed): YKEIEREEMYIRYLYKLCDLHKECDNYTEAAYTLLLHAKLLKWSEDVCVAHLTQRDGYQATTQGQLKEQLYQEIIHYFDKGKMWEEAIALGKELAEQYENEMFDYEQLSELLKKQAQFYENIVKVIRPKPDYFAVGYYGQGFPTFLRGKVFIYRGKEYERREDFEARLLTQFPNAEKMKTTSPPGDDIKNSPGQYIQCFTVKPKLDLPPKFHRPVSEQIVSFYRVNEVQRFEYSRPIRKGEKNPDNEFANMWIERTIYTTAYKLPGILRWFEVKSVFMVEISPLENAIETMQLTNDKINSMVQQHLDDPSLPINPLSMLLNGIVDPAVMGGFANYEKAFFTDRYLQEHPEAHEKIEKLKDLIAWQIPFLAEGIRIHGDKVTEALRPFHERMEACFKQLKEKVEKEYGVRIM
Method: DOCK1 and DOCK2, i.e., DOCK-A subfamily members, both activate Rac by catalyzing the GTP-GDP exchange reaction for Rac via their DHR-2 domains. Therefore, in this Pharmacological Test, the inhibitory effect of the compounds of the present invention on Rac activation by DOCK1 or DOCK2 was assessed in an in vitro GEF assay by using polypeptide fragments corresponding to the DHR-2 domain of DOCK1 or DOCK2 from mice and humans. The in vitro GEF assay was performed using a labeled GTP (Bodipy-FL-GTP, Invitrogen), which has a property of increasing the fluorescence intensity when bound to Rac.
The polypeptide fragments corresponding to the DHR-2 domain of DOCK1 or DOCK2 were prepared by expression in E. coli Arctic express (DE3) cells as N-terminal. Histidine-SUMO tag-fused recombinant proteins, followed by purification by affinity column chromatography on nickel-NTA columns.
Rac was prepared by expression in E. coli BL21 (DE3) cells as an N-terminal GST tag-fused recombinant protein, followed by purification by affinity column chromatography on glutathione-Sepharose columns.
Each of the polypeptide fragments corresponding to the DHR-2 domain of DOCK1 or DOCK2, and a predetermined concentration of each test compound (the compounds of the present invention: 33 types of compounds; and comparative compound: TBOPP) dissolved in DMSO were incubated in a reaction solution A (pH 7.0), which contained 20 mM of MES-NaOH, 150 mM of NaCl, 10 mM of MgCl2, and 20 μM of GDP for 20 minutes at room temperature while being shielded from light to thus prepare GEF pretreated products. The final concentration of DMSO was adjusted to 1 mass % in all of the test samples. For a control test, a GEF pretreated product (control) was prepared by incubation in the same manner using DMSO with no test compounds, instead of the DMSO used above in which each test compound was dissolved.
Separately, Rac was added to the reaction solution A (pH 7.0) to a concentration of 15 μM, and was allowed to stand on for 30 min to form a GDP-Rac complex. Bodipy-FL-GTP was added to a concentration of 3.6 μM to 100 μL of the reaction solution A that contained the thus-prepared GDP-Rac complex, and equilibrated at 30° C. for 2 minutes. After equilibration, 50 μL of the GEF pretreated product prepared as described above was added and reacted at 30° C.
Changes in fluorescence intensity of Bodipy-FL-GTP in the reaction solutions were monitored using an EnSpire spectrofluorometer (Perkin Elmer) (excitation wavelength: 488 nm, fluorescence wavelength: 514 nm). The measured values were corrected so that the fluorescence intensity at the beginning of the reaction (0 sec) was 0. Then, an approximate curve (hyperbola) was obtained by plotting the calculated correction values on the y-axis and the time (t) on the x-axis using GraphPad Prism5 (GraphPad software), and the slope at t=0 to 10 seconds was defined as the initial velocity of the guanine nucleotide exchange reaction. The IC50 value was calculated taking the initial reaction velocity of the control, to which only a solvent (DMSO) was added, as 100%.
Based on the obtained results, columns A and B of FIG. 1, FIG. 2, FIG. 3-1, and FIG. 3-2 show the results evaluating the inhibitory effect on Rac activation by DOCK1 (DHR-2 domain) (IC50 value), and DOCK1-selective inhibitory effect (DOCK1/DOCK2 selectivity) of each test compound. The inhibitory effect on Rac activation by DOCK1 (DHR-2 domain) (IC50 value) was determined from the reaction inhibition curve plotted using values of Rac activation by the DOCK1 DHR-2 domain in the presence of various concentrations of the test compounds, taking the values of the control as 100%. […]

[3] = tested on: mouse lung carcinoma cell line (3LL); assay: Tumor growth of subcutaneously transplanted mouse lung carcinoma cells; type: in vivo, C57BL/6 mice; details: 3LL s.c. in mice, 0.25 mg/300 μL, day 26 to day 29
Method: The mouse lung carcinoma cell line (3LL) was suspended in 200 μL of PBS(−), and transplanted (5×10^5 cells per mouse) into the dorsal subcutaneous region of C57BL/6 mice (6 weeks old). To a 6:1:1 mixture of PBS/Cremophor EL/ethanol, RT-22 as a representative of the compounds of the present invention was added to a concentration of 0.25 mg/300 μL, and the resulting mixture was loaded into an SMP-300 micro infusion pump (iPRECIO), which was subcutaneously implanted on the previous day of the transplantation, to perform continuous intravenous administration (n=5 mice). The control group was only administered with an equivalent volume of a solvent (a 6:1:1 mixture of PBS/Cremophor EL/ethanol) (n=6 mice). The transverse and longitudinal diameters of the tumor mass were measured over time for a period of 4 weeks from the start of administration, and the tumor volume (V) was calculated according to the formula: V=π/6x√((transverse diameter×longitudinal diameter)^3).

O=C(Cn1cc(S(=O)(=O)N2CCCC2)ccc1=O)c1ccc(-c2cccc(C(F)(F)F)c2)cc1 [TBOPP, 1-(2-oxo-2-(3′-(trifluoromethyl)-[1,1′-biphenyl]-4-yl)ethyl)-5-(pyrrolidin-1-ylsulfonyl)pyridin-2(1H)-one, reference compound]
percent cell invasion inhibition [1]: 95%
DOCK1-selective inhibitory effect (DOCK1/DOCK2 selectivity) ([2]; IC50 for DOCK2 divided by IC50 for DOCK1): 2.6
pIC50 ([2]; in vitro GEF assay, Bodipy-FL-GTP, DMSO control as 100%, read-out: inhibitory effect (IC50 value) on Rac activation by DOCK1 (DHR-2 domain)): 5.08
tumor size reduced by, compared to the control group [3]: 21-24%
